Experimental data taken from ChEMBL document CHEMBL6121000, “Corosolic acid and its derivatives targeting MCCC1 against insulin resistance and their hypoglycemic effect on type 2 diabetic mice” (Eur J Med Chem, 2025).
Active and inactive are the calls of the source. The calls are words filed in the database; no cut-off is given here.

Tests used:
[1] = (§1) Cytotoxicity against human HepG2 cells assessed as cell viability at 80 uM incubated for 24 hrs by CCK8 assay relative to control; assay type: toxicity, cell-based; conditions: HepG2 cells, read-out: Activity
HepG2 [2] = assay: Inhibition of insulin resistance in human HepG2 cells assessed as decrease in GlcN-induced glucose production at 20 uM preincubated for 1 hr followed by GlcN treatment for 18 hrs and subsequent insulin stimulation for 20 mins; assay type: functional, cell-based; conditions: time 19.33 hrs
HepG2 [3] = assay: Lipid lowering activity in human HepG2 cells assessed as inhibition of FFA-induced triglyceride content at 20 uM preincubated for 1 hr followed by FFA treatment for 24 hrs relative to control; assay type: functional
HepG2 [4] = assay: Cytotoxicity against human HepG2 cells assessed as cell survival at 10 to 40 uM by MTT assay; assay type: toxicity, cell-based; conditions: hepg2, 40 µM, dose 10-40 µM
HepG2 [5] = assay: as §1; assay type: toxicity, cell-based; conditions: hepg2, 24 h, 80 µM
Mus musculus = assay: Hypoglycemic activity in HFD-fed STZ-induced diabetic C57BL/6J mouse model assessed as improvement in weight loss at 200 mg/kg, po administered everyday for 3 weeks; assay type: functional, organism-based

`C[C@H]1[C@H](C)CC[C@]2(C(=O)O)CC[C@]3(C)C(=CC[C@@H]4[C@@]5(C)CC[C@H](O)C(C)(C)[C@@H]5CC[C@]43C)[C@H]12` [URSOLIC ACID] showed a viability at 24 h, 80 µM [1] of 7.85%.

In the case of `CCCCC(=O)NCCCNC(=O)[C@]12CC[C@@H](C)[C@H](C)[C@H]1C1=CC[C@@H]3[C@@]4(C)C[C@@H](O)[C@H](O)C(C)(C)[C@@H]4CC[C@@]3(C)[C@]1(C)CC2`, the viability at 24 h, 80 µM [1] is reported as > 80% and the inhibition (HepG2 [2]) is reported as “Active”.

For `CC(=O)OC[C@H]1O[C@H](OC(=O)[C@]23CC[C@@H](C)[C@H](C)[C@H]2C2=CC[C@@H]4[C@@]5(C)C[C@@H](O)[C@H](O)C(C)(C)[C@@H]5CC[C@@]4(C)[C@]2(C)CC3)C(OC(C)=O)[C@H](OC(C)=O)C1OC(C)=O` (single isomer, unassigned), the viability at 24 h, 80 µM [1] was > 80% and the inhibition (HepG2 [2]) was “Active”.

For `CC(=O)O[C@H]1CC[C@]2(C)[C@H]3CC=C4[C@@H]5[C@@H](C)[C@H](C)CC[C@]5(C(=O)OCc5ccccc5)CC[C@@]4(C)[C@]3(C)CC[C@H]2C1(C)C`, the viability at 24 h, 80 µM [1] was > 80% and the inhibition at 20 µM (HepG2 [3]) was 58.5%.

For `COC(=O)CCCCNC(=O)[C@]12CC[C@@H](C)[C@H](C)[C@H]1C1=CC[C@@H]3[C@@]4(C)C[C@@H](O)[C@H](O)C(C)(C)[C@@H]4CC[C@@]3(C)[C@]1(C)CC2`, the viability at 24 h, 80 µM [1] was > 80% and the inhibition (HepG2 [2]) was “Active”.

With `COC(=O)C(Cc1ccc(OC)cc1)NC(=O)[C@]12CC[C@@H](C)[C@H](C)[C@H]1C1=CC[C@@H]3[C@@]4(C)C[C@@H](O)[C@H](O)C(C)(C)[C@@H]4CC[C@@]3(C)[C@]1(C)CC2` (stereo partly specified) the viability at 24 h, 80 µM [1] was > 80% and the inhibition (HepG2 [2]) was “Active”.

In the case of `C[C@H]1[C@H](C)CC[C@]2(C(=O)OCc3ccccc3)CC[C@]3(C)C(=CC[C@@H]4[C@@]5(C)CC[C@H](O)C(C)(C)[C@@H]5CC[C@]43C)[C@H]12`, the viability at 24 h, 80 µM [1] is reported as > 80% and the inhibition (HepG2 [2]) is reported as “Active”.

For `CCOC(=O)[C@H](C)NC(=O)[C@]12CC[C@@H](C)[C@H](C)[C@H]1C1=CC[C@@H]3[C@@]4(C)C[C@@H](OC(C)=O)[C@H](OC(C)=O)C(C)(C)[C@@H]4CC[C@@]3(C)[C@]1(C)CC2`, the viability at 24 h, 80 µM [1] was > 80%, the inhibition (HepG2 [2]) was “Active” and the inhibition at 20 µM (HepG2 [3]) was 63.1%.

Work on `C[C@H]1[C@H](C)CC[C@]2(C(=O)OCc3ccccc3)CC[C@]3(C)C(=CC[C@@H]4[C@@]5(C)C[C@@H](O)[C@H](O)C(C)(C)[C@@H]5CC[C@]43C)[C@H]12` yielded a viability at 24 h, 80 µM [1] of 12.3%.

With `C[C@H]1[C@H](C)CC[C@]2(C(=O)NCCCNC(=O)CCCC[C@H]3SC[C@H]4NC(=O)N[C@H]43)CC[C@]3(C)C(=CC[C@@H]4[C@@]5(C)C[C@@H](O)[C@H](O)C(C)(C)[C@@H]5CC[C@]43C)[C@H]12` the Activity (HepG2 [4]) was “Non-toxic”.

With `COC(=O)[C@H](Cc1ccccc1)NC(=O)[C@]12CC[C@@H](C)[C@H](C)[C@H]1C1=CC[C@@H]3[C@@]4(C)C[C@@H](O)[C@H](O)C(C)(C)[C@@H]4CC[C@@]3(C)[C@]1(C)CC2` the viability at 24 h, 80 µM [1] was > 80% and the inhibition (HepG2 [2]) was “Active”.

For `C[C@H]1[C@H](C)CC[C@]2(C(=O)On3nnc4ccccc43)CC[C@]3(C)C(=CC[C@@H]4[C@@]5(C)C[C@@H](O)[C@H](O)C(C)(C)[C@@H]5CC[C@]43C)[C@H]12`, the viability at 24 h, 80 µM [1] was > 80%.

With `CCOC(=O)[C@H](CS)NC(=O)[C@]12CC[C@@H](C)[C@H](C)[C@H]1C1=CC[C@@H]3[C@@]4(C)C[C@@H](O)[C@H](O)C(C)(C)[C@@H]4CC[C@@]3(C)[C@]1(C)CC2` the viability at 24 h, 80 µM [1] was > 80% and the inhibition (HepG2 [2]) was “Active”.

For `CCOC(=O)[C@H](CC(C)C)NC(=O)[C@]12CC[C@@H](C)[C@H](C)[C@H]1C1=CC[C@@H]3[C@@]4(C)C[C@@H](O)[C@H](O)C(C)(C)[C@@H]4CC[C@@]3(C)[C@]1(C)CC2`, the viability at 24 h, 80 µM [1] was > 80% and the inhibition (HepG2 [2]) was “Active”.

In the case of `C[C@H]1[C@H](C)CC[C@]2(C(=O)NC(=O)NC3CC3)CC[C@]3(C)C(=CC[C@@H]4[C@@]5(C)C[C@@H](O)[C@H](O)C(C)(C)[C@@H]5CC[C@]43C)[C@H]12`, the viability at 24 h, 80 µM [1] is reported as > 80% and the inhibition (HepG2 [2]) is reported as “Active”.

For `C[C@H]1[C@H](C)CC[C@]2(C(=O)OCc3ccccc3)CC[C@]3(C)C(=CC[C@@H]4[C@@]5(C)CCC(=O)C(C)(C)[C@@H]5CC[C@]43C)[C@H]12`, the viability at 24 h, 80 µM [1] was > 80%.

In the case of `CC(=O)O[C@@H]1C[C@]2(C)[C@H]3CC=C4[C@@H]5[C@@H](C)[C@H](C)CC[C@]5(C(=O)NCCCNC(=O)OCC5c6ccccc6-c6ccccc65)CC[C@@]4(C)[C@]3(C)CC[C@H]2C(C)(C)[C@H]1OC(C)=O`, the viability at 24 h, 80 µM [1] is reported as > 80%.

`C[C@H]1[C@H](C)CC[C@]2(C(=O)O[C@H]3O[C@H](CO)C(O)[C@@H](O)[C@H]3O)CC[C@]3(C)C(=CC[C@@H]4[C@@]5(C)C[C@@H](O)[C@H](O)C(C)(C)[C@@H]5CC[C@]43C)[C@H]12` (single isomer, unassigned) gave a viability at 24 h, 80 µM [1] of 64.5%.

With `CCOC(=O)[C@H](CO)NC(=O)[C@]12CC[C@@H](C)[C@H](C)[C@H]1C1=CC[C@@H]3[C@@]4(C)C[C@@H](O)[C@H](O)C(C)(C)[C@@H]4CC[C@@]3(C)[C@]1(C)CC2` the viability at 24 h, 80 µM [1] was > 80% and the inhibition (HepG2 [2]) was “Active”.

For `C[C@H]1[C@H](C)CC[C@]2(C(=O)NCCCN)CC[C@]3(C)C(=CC[C@@H]4[C@@]5(C)C[C@@H](O)[C@H](O)C(C)(C)[C@@H]5CC[C@]43C)[C@H]12`, the viability at 24 h, 80 µM [1] was > 80%.

For `CCOC(=O)CNC(=O)[C@]12CC[C@@H](C)[C@H](C)[C@H]1C1=CC[C@@H]3[C@@]4(C)C[C@@H](O)[C@H](O)C(C)(C)[C@@H]4CC[C@@]3(C)[C@]1(C)CC2`, the viability at 24 h, 80 µM [1] was > 80%.

For `CC(=O)O[C@@H]1C[C@]2(C)[C@H]3CC=C4[C@@H]5[C@@H](C)[C@H](C)CC[C@]5(C(=O)O)CC[C@@]4(C)[C@]3(C)CC[C@H]2C(C)(C)[C@H]1OC(C)=O`, the viability at 24 h, 80 µM [1] was 58.7%.

With `C[C@H]1[C@H](C)CC[C@]2(C(=O)NCCCCCC(=O)O)CC[C@]3(C)C(=CC[C@@H]4[C@@]5(C)C[C@@H](O)[C@H](O)C(C)(C)[C@@H]5CC[C@]43C)[C@H]12` the Activity (HepG2 [5]) was “Non-toxic”.

In the case of `CC(=O)O[C@@H]1C[C@]2(C)[C@H]3CC=C4[C@@H]5[C@@H](C)[C@H](C)CC[C@]5(C(=O)NCCCN)CC[C@@]4(C)[C@]3(C)CC[C@H]2C(C)(C)[C@H]1OC(C)=O`, the viability at 24 h, 80 µM [1] is reported as 8.9% and the inhibition (HepG2 [2]) is reported as “Active”.

For `CN(C)C(=N)NC(=N)N`, the Activity (Mus musculus) was “Active”.

In the case of `CCOC(=O)[C@H](C)NC(=O)[C@]12CC[C@@H](C)[C@H](C)[C@H]1C1=CC[C@@H]3[C@@]4(C)C[C@@H](O)[C@H](O)C(C)(C)[C@@H]4CC[C@@]3(C)[C@]1(C)CC2`, the viability at 24 h, 80 µM [1] is reported as > 80%.

With `C[C@H]1[C@H](C)CC[C@]2(C(=O)NCCCNC(=O)c3ccccc3)CC[C@]3(C)C(=CC[C@@H]4[C@@]5(C)C[C@@H](O)[C@H](O)C(C)(C)[C@@H]5CC[C@]43C)[C@H]12` the viability at 24 h, 80 µM [1] was > 80%.
